These results are taken from patent publication US9593156B2 (priority 2012, dated 2017).

As a reminder, the IC80 is the point of the concentration-response curve where the effect stands at 80%. Read a high IC80 as weaker potency.

The target of the experiment is IGF-1 receptor (Homo sapiens, UniProt P08069). The experiment can be described thus: IGF-1 receptor competition binding assay (scintillation proximity). Also noted: expressed in transfected cells; plasma membrane fragments. Particulars: Table 9; IGF-1 Receptor. For orientation: In a scintillation proximity assay essentially only radioactivity close to the scintillant gives light.
IGF-1 receptor, sequence (P08069 31-736 limits assumed): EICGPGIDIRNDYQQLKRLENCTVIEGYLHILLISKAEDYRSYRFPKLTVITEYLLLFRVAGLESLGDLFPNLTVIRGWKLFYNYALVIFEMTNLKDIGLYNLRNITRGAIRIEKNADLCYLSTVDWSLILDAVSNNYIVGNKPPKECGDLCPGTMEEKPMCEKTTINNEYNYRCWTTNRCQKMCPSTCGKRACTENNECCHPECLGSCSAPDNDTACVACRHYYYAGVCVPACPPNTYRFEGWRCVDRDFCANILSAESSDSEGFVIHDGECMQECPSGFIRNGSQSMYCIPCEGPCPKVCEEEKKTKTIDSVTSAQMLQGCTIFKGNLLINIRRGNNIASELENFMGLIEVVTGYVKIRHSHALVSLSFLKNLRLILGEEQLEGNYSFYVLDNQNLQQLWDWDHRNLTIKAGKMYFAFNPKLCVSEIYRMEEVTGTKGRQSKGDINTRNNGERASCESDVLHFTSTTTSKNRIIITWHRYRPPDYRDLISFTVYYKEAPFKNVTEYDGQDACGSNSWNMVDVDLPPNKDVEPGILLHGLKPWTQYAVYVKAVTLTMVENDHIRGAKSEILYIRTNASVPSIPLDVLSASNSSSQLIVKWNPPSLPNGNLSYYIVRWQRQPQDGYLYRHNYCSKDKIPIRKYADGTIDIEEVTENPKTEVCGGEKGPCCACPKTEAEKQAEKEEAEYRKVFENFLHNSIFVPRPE
IGF-1 receptor, sequence (P08069 741-1367 partner limits assumed): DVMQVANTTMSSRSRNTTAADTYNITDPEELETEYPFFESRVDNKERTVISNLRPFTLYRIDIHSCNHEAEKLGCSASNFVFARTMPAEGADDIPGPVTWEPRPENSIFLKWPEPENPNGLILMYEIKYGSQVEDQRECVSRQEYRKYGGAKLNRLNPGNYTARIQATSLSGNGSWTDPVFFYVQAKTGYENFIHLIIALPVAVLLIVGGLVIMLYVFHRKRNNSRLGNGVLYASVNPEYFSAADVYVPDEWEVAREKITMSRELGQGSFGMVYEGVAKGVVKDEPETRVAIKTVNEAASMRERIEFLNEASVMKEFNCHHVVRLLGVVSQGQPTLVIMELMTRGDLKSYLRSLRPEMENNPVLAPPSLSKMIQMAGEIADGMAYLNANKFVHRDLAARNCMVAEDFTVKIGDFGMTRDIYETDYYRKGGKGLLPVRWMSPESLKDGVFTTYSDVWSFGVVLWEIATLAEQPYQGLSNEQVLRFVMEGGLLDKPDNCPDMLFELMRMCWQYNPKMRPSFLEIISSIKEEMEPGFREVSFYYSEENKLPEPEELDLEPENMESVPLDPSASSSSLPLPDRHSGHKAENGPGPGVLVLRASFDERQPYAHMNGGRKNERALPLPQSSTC

Regarding `CC[C@H](C)[C@H](NC(=O)CN)C(=O)N[C@H](C(=O)N[C@@H](CC(=O)O)C(=O)N[C@@H](CCC(=O)O)C(=O)N[C@H]1CSSC[C@@H]2NC(=O)[C@H](CO)NC(=O)[C@H](CCCNC(=N)N)NC(=O)[C@H](Cc3ccccc3)NC(=O)[C@H](CSSC[C@H](NC(=O)[C@H](CC(C)C)NC(=O)[C@H](Cc3c[nH]cn3)NC(=O)[C@H](CCC(N)=O)NC(=O)[C@H](CC(N)=O)NC(=O)[C@@H](NC(=O)[C@@H](N)Cc3ccccc3)C(C)C)C(=O)NCC(=O)N[C@@H](C)C(=O)N[C@@H](CCC(=O)O)C(=O)N[C@@H](CC(C)C)C(=O)N[C@@H](C(C)C)C(=O)N[C@@H](CC(=O)O)C(=O)N[C@@H](C)C(=O)N[C@@H](CC(C)C)C(=O)N[C@@H](Cc3ccc(O)cc3)C(=O)N[C@@H](CC(C)C)C(=O)N[C@@H](C(C)C)C(=O)N[C@H](C(=O)NCC(=O)N[C@@H](CC(=O)O)C(=O)N[C@@H](CCCNC(=N)N)C(=O)NCC(=O)N[C@@H](Cc3ccccc3)C(=O)N[C@@H](Cc3ccc(O)cc3)C(=O)N[C@@H](Cc3ccccc3)C(=O)N[C@@H](CC(N)=O)C(=O)N[C@@H](CCCCN)C(=O)N3CCC[C@H]3C(=O)N[C@H](C(N)=O)[C@@H](C)O)CSSC[C@@H](C(=O)N[C@@H](C)C(N)=O)NC(=O)[C@H](Cc3ccc(O)cc3)NC(=O)[C@H](CCSC)NC(=O)[C@H](CCC(=O)O)NC(=O)[C@H](CC(C)C)NC(=O)[C@H](CCCNC(=N)N)NC(=O)[C@H](CCCNC(=N)N)NC(=O)[C@H](CC(C)C)NC(=O)[C@H](CC(=O)O)NC2=O)NC1=O)C(C)C` [IGF-1 A:In B(1-5)-IGF-1 B(YL) (6-30)], the “% IGF-1 (in test)” value was 3.6%.

Consider `CC[C@H](C)[C@H](NC(=O)CN)C(=O)N[C@H](C(=O)N[C@@H](CC(=O)O)C(=O)N[C@@H](CCC(=O)O)C(=O)N[C@H]1CSSC[C@@H]2NC(=O)[C@H](CO)NC(=O)[C@H](CCCNC(=N)N)NC(=O)[C@H](Cc3ccccc3)NC(=O)[C@H](CSSC[C@H](NC(=O)[C@H](CC(C)C)NC(=O)[C@H](Cc3c[nH]cn3)NC(=O)[C@H](CCC(N)=O)NC(=O)[C@H](CC(N)=O)NC(=O)[C@@H](NC(=O)[C@@H](N)Cc3ccccc3)C(C)C)C(=O)NCC(=O)N[C@@H](CO)C(=O)N[C@@H](Cc3c[nH]cn3)C(=O)N[C@@H](CC(C)C)C(=O)N[C@@H](C(C)C)C(=O)N[C@@H](CCC(=O)O)C(=O)N[C@@H](C)C(=O)N[C@@H](CC(C)C)C(=O)N[C@@H](Cc3ccc(O)cc3)C(=O)N[C@@H](CC(C)C)C(=O)N[C@@H](C(C)C)C(=O)N[C@H](C(=O)NCC(=O)N[C@@H](CC(=O)O)C(=O)N[C@@H](CCCNC(=N)N)C(=O)NCC(=O)N[C@@H](Cc3ccccc3)C(=O)N[C@@H](Cc3ccc(O)cc3)C(=O)N[C@@H](Cc3ccccc3)C(=O)N[C@@H](CC(N)=O)C(=O)N[C@@H](CCCCN)C(=O)N3CCC[C@H]3C(=O)N[C@H](C(N)=O)[C@@H](C)O)CSSC[C@@H](C(=O)N[C@@H](C)C(N)=O)NC(=O)[C@H](Cc3ccc(O)cc3)NC(=O)[C@H](CCSC)NC(=O)[C@H](CCC(=O)O)NC(=O)[C@H](CC(C)C)NC(=O)[C@H](CCCNC(=N)N)NC(=O)[C@H](CCCNC(=N)N)NC(=O)[C@H](CC(C)C)NC(=O)[C@H](CC(=O)O)NC2=O)NC1=O)C(C)C` [IGF-1 A:In (1-17)-IGF-1 B(18-30)], for which the IC80 came out at 62.5 nM.
